This assay concerns the target METTL3/METTL14 (Homo sapiens, UniProt Q86U44). In words: Inhibition of full-length His-tagged METTL3 (unknown origin) coexpressed with full-length FLAG-tagged METTL14 (unknown origin) expressed in baculovirus expression system using 5'P-uacacucgaucuggacuaaagcugcuc-3' RNA as substrate pre-incubated for 10 mins and followed by substrate addition and measured after 60 mins by methyltransferase assay.

Molecules are shown by their SMILES.

Chain of METTL3/METTL14 (Q86U44 whole entry): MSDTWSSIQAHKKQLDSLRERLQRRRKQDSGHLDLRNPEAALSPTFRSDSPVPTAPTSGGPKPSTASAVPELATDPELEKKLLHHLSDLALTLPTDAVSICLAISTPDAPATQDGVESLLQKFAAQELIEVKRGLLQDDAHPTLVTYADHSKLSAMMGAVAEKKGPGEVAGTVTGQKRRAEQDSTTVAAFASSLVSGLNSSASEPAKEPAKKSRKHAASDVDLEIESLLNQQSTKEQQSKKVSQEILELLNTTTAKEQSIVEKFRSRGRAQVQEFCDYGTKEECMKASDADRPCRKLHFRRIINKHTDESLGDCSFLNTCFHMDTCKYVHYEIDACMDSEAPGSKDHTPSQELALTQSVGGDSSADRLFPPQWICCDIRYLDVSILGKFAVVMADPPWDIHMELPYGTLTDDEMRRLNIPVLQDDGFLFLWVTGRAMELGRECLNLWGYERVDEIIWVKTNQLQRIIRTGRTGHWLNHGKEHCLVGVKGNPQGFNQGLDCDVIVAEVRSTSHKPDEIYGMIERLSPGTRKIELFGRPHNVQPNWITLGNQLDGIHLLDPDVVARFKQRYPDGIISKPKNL
Chain of METTL3/METTL14 (Q9HCE5 whole entry, further chain): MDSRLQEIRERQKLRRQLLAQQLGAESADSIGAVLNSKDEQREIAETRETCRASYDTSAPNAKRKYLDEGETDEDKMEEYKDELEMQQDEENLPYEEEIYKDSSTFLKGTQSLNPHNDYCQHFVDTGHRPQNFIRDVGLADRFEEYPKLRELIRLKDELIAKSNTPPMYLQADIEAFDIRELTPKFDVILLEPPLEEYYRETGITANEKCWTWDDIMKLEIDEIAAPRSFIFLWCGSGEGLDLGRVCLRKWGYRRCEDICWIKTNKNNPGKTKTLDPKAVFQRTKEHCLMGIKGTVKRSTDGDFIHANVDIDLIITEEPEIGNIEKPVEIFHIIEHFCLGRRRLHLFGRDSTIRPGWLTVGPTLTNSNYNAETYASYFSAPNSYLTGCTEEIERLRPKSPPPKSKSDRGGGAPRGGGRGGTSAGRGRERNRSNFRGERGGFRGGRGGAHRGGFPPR

A word on the IC50: it is the point on the concentration scale where inhibition reaches its midpoint. Lower therefore signals greater potency in that assay. In turn, `O=C(NCc1ccc2cc(CCN3CC4(CCC4)C3)[nH]c2c1)c1cc(=O)n2ccccc2n1` registered a half-maximal inhibitory concentration (IC50) of 118 nM.
The result for `O=C(NCc1ccc2cc(CN3CC(C4CC4)C3)[nH]c2c1)c1cc(=O)n2ccccc2n1` reads 9.24 nM.

These data come from ChEMBL document CHEMBL5050858, “Polyheterocyclic compounds as mettl3 inhibitors” (2021).
